Test results as given in article PMC10564737, “Structure-based design of a phosphotyrosine-masked covalent ligand targeting the E3 ligase SOCS2” (Nature Communications, 2023).
Several values for one entry are separate records, joined by “and”; a condition that tells them apart may be missing. Identical values can stand only once. Entries after “also recorded” stand apart in the source; their conditions may differ.

Legend:
SBC2 = target: T1, SBC2 (Homo sapiens, UniProt O14508); assay: Differential scanning fluorimetry (DSF); assay type: binding; details: 5 µM SBC2 + 100 µM MN551
T1 construct: SOCS2 (amino acids 32–198); His6 (N, cleaved yes); made in house; host or cells: E. coli BL21(DE3)
Protocol: DSF experiments were performed on a Biorad CFX96 RT-PCR machine. […] of SBC2 were incubated with […] MN551 (2 % DMSO) or DMSO control in 50 mM Tris, pH 8.0, 50 mM NaCl and 6.6 × SYPRO Orange. The temperature was ramped up in 1 °C steps between 25 and 95 °C with 30 s incubation at each step. Melting curves were analyzed by determining the minimum of the first derivative using the Biorad CFX Manager software.

[1] = target: T2, SOCS2 C111S mutant (SBC2 C111S) (Homo sapiens, UniProt O14508, C111S); assay: Intact ESI-MS of recombinant protein, covalent modification; assay type: biochemical; details: for % modified: SOCS2 C111S + MN551 (1:1, 50 µM)
T2 construct: SOCS2 (amino acids 32–198); His6 (N, cleaved yes); made in house; host or cells: E. coli BL21(DE3)
Protocol: […] At defined time points 20 µl samples were removed and the protein precipitated by the addition of 80 µl methanol. The precipitated protein was pelleted by centrifugation, washed with 500 µl methanol, and resuspended in an aqueous solution of 15% acetonitrile and 1% TFA. Samples were separated by HPLC on a C3 column using a 10–75% gradient of acetonitrile and analyzed using an Agilent 6130 quadrupole MS. Spectra were deconvoluted and integrated using Agilent LC/MSD ChemStation.

[2] = target: T3, HiBiT-SOCS2 fusion in HeLa cells (Homo sapiens, UniProt O14508); assay: Split-NanoLuc CETSA, live-cell mode; assay type: cell-based; parameters: Produrg CETSA screening, raw signal: reference not given here; details: for Produrg CETSA screening, raw signal: 50uM 20hrs
T3 construct: encoding SOCS2 (32–198) in pBiT3.1-N expression vector; expressed in transfected cells; host or cells: HeLa
How it was run: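 HeLa cells transiently expressing N-terminal HiBiT-SOCS2 (32–198) were treated live with 50 μM prodrug for 20 h at 37 °C (1% DMSO), then heated 3 min across 40–72 °C. HiBiT lytic luminescence was normalized to the 40 °C signal, and apparent Tagg was fitted by Boltzmann sigmoid.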

T3 sequence (O14508 32-198): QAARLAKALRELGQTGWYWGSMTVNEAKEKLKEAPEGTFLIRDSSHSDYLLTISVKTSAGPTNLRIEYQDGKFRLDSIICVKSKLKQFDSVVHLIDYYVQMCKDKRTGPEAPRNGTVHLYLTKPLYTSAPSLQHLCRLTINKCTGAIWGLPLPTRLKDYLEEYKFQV
T3 sequence (Q15370 whole entry, further chain, the tested form may be a part): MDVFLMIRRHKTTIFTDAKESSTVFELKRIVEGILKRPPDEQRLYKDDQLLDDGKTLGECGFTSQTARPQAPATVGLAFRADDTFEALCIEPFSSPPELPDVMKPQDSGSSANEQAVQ
T3 sequence (Q15369 whole entry, further chain, the tested form may be a part): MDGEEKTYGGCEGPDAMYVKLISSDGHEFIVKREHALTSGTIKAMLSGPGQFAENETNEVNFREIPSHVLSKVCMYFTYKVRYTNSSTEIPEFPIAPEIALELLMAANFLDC
T2 sequence (Q15370 1-104): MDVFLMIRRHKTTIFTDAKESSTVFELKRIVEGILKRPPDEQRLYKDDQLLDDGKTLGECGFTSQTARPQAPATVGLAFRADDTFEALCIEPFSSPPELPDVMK
T2 sequence (Q15369 17-112, further chain): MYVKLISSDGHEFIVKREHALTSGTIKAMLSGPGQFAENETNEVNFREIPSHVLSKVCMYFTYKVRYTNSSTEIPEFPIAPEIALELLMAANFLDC
T2 sequence (O14508 32-198 C111S): as the sequence (O14508 32-198) above, with C80S counted along it
T1 sequence (O14508 32-198): as the sequence (O14508 32-198) above
T1 sequence (Q15370 1-104 partner limits assumed): as the sequence (Q15370 1-104) above
T1 sequence (Q15369 17-112 partner limits assumed): as the sequence (Q15369 17-112, further chain) above

Compound: O=C(CCl)Nc1cccc(CNC(=O)[C@H](Cc2ccc(OP(=O)(O)O)cc2)NC(=O)Cc2ccc(F)cc2)c1 [MN551]
- ΔTm, shift in the melting temperature of SBC2 (SBC2): 6 °C
- covalent reactivity with C111S mutant [1]: no reactivity; also recorded: does not covalently react
- % modified ([1]; t = 0 min): 0.0%
- % modified ([1]; t = 5 min): 0.0%
- % modified ([1]; t = 10 min): 0.0%
- % modified ([1]; t = 20 min): 0.0%
- % modified ([1]; t = 40 min): 0.0%
- % modified ([1]; t = 60 min): 0.0%
- % modified ([1]; t = 90 min): 0.0%
- % modified ([1]; t = 120 min): 0.0%
- Produrg CETSA screening, raw signal ([2]; n=1, temperature point 4 of 16, temperature not given): 51906 and 74271 and 83631
- Produrg CETSA screening, raw signal ([2]; n=1, temperature point 5 of 16, temperature not given): 62246 and 51464 and 85761
- Produrg CETSA screening, raw signal ([2]; n=1, temperature point 6 of 16, temperature not given): 108788 and 87275 and 106856
- Produrg CETSA screening, raw signal ([2]; n=1, temperature point 7 of 16, temperature not given): 132974 and 140531 and 140435
- Produrg CETSA screening, raw signal ([2]; n=1, temperature point 8 of 16, temperature not given): 134181 and 150079 and 139460
- Produrg CETSA screening, raw signal ([2]; n=1, temperature point 9 of 16, temperature not given): 189390 and 210146 and 247725
- Produrg CETSA screening, raw signal ([2]; n=1, temperature point 10 of 16, temperature not given): 222849 and 214562 and 260657
- Produrg CETSA screening, raw signal ([2]; n=1, temperature point 11 of 16, temperature not given): 306316 and 347377 and 363834
- Produrg CETSA screening, raw signal ([2]; n=1, temperature point 12 of 16, temperature not given): 497790 and 541910 and 544913
- Produrg CETSA screening, raw signal ([2]; n=1, temperature point 13 of 16, temperature not given): 482302 and 510836 and 519812
- Produrg CETSA screening, raw signal ([2]; n=1, temperature point 14 of 16, temperature not given): 563762 and 585700 and 590798
- Produrg CETSA screening, raw signal ([2]; n=1, temperature point 15 of 16, temperature not given): 665581 and 663053 and 701220
- Produrg CETSA screening, raw signal ([2]; n=1, temperature point 16 of 16, temperature not given): 691060 and 708174 and 757604
- Produrg CETSA screening, raw signal ([2]; n=2, temperature point 1 of 16, temperature not given): 29701 and 32684 and 58114
- Produrg CETSA screening, raw signal ([2]; n=2, temperature point 2 of 16, temperature not given): 46564 and 62785 and 77591
- Produrg CETSA screening, raw signal ([2]; n=2, temperature point 3 of 16, temperature not given): 123506 and 129184 and 115193
- Produrg CETSA screening, raw signal ([2]; n=2, temperature point 5 of 16, temperature not given): 47087 and 55743 and 78578
- Produrg CETSA screening, raw signal ([2]; n=2, temperature point 6 of 16, temperature not given): 98105 and 105595 and 117544
- Produrg CETSA screening, raw signal ([2]; n=2, temperature point 7 of 16, temperature not given): 144950 and 158240 and 171572
- Produrg CETSA screening, raw signal ([2]; n=2, temperature point 8 of 16, temperature not given): 135100 and 139766 and 168368
- Produrg CETSA screening, raw signal ([2]; n=2, temperature point 9 of 16, temperature not given): 229091 and 227474 and 261588
- Produrg CETSA screening, raw signal ([2]; n=2, temperature point 10 of 16, temperature not given): 267450 and 271378 and 303431
- Produrg CETSA screening, raw signal ([2]; n=2, temperature point 11 of 16, temperature not given): 327561 and 343740 and 362839
- Produrg CETSA screening, raw signal ([2]; n=2, temperature point 12 of 16, temperature not given): 483965 and 500271 and 541590
- Produrg CETSA screening, raw signal ([2]; n=2, temperature point 13 of 16, temperature not given): 506853 and 509845 and 531489
- Produrg CETSA screening, raw signal ([2]; n=2, temperature point 14 of 16, temperature not given): 591756 and 578279 and 588133
- Produrg CETSA screening, raw signal ([2]; n=2, temperature point 15 of 16, temperature not given): 597206 and 580381 and 582472
- Produrg CETSA screening, raw signal ([2]; n=2, temperature point 16 of 16, temperature not given): 620665 and 663583 and 665832
- Produrg CETSA screening, raw signal ([2]; n=3, Temp, 0C 59.2): 55622
- Produrg CETSA screening, raw signal ([2]; n=3, Temp, 0C 62.3): 33828 and 45066 and 46746
- Produrg CETSA screening, raw signal ([2]; n=3, Temp, 0C 66.1): 15770 and 17572 and 22773
- Produrg CETSA screening, raw signal ([2]; n=3, Temp, 0C 69.3): 14086 and 13763 and 18636
- Produrg CETSA screening, raw signal ([2]; n=3, Temp, 0C 71.1): 13296 and 19284 and 20568
- Produrg CETSA screening, raw signal ([2]; n=3, Temp, 0C 72): 12696 and 17884 and 19057
- Tagg shift, live-cell CETSA ([2]; HeLa cells, 50 μM, 20 h): 2 °C
- ΔT ([2]; Prodrug screen CETSA, live HeLa cells, 50 μM, 20 h, Mean n = 3): 1.99 oC
- ΔT, individual replicates n1-n3 ([2]; Prodrug screen CETSA, single replicates): 0.38 oC and 4.34 oC and 1.24 oC
